Laboratory results published in patent publication US12077503B2, “Substituted cyclic amides and their use as herbicides” (FMC CORPORATION, priority 2015, dated 2024).

Columns and labels:
Format in all cases: in vivo
Kochia (Kochia scoparia) = experiment: Test A preemergence; details: Bassia scoparia, pre-emergence, 240 h, 0 to 100 scale (0 no effect, 100 complete control), read-out: Plant response rating, Kochia
Summary of the method: (§1)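 Each rating is a visual injury score from 0 to 100 given about 10 d after treatment, judged against untreated controls kept alongside in the greenhouse. In loam soil–sand blend, seeds got a preemergence directed soil spray, while postemergence plants were 2 to 10 cm tall at spraying.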

[1] = system: ryegrass, Italian (Italian ryegrass, Lolium multiflorum); experiment: Test A preemergence; details: Lolium multiflorum, pre-emergence, 240 h, 0 to 100 scale (0 no effect, 100 complete control), read-out: Plant response rating, Ryegrass, Italian
Summary of the method: as §1

[2] = system: giant foxtail (Setaria faberii); experiment: Test A preemergence; details: Setaria faberi, pre-emergence, 240 h, 0 to 100 scale (0 no effect, 100 complete control), read-out: Plant response rating, Foxtail, Giant
Summary of the method: as §1

[3] = system: ragweed (common ragweed, Ambrosia elatior); experiment: Test A preemergence; details: Ambrosia artemisiifolia, pre-emergence, 240 h, 0 to 100 scale (0 no effect, 100 complete control), read-out: Plant response rating, Ragweed
Summary of the method: as §1

[4] = system: barnyardgrass (Echinochloa crus-galli); experiment: Test A preemergence; details: Echinochloa crus-galli, pre-emergence, 240 h, 0 to 100 scale (0 no effect, 100 complete control), read-out: Plant response rating, Barnyardgrass
Summary of the method: as §1

[5] = system: pigweed (Amaranthus retroflexus); experiment: Test A preemergence; details: Amaranthus retroflexus, pre-emergence, 240 h, 0 to 100 scale (0 no effect, 100 complete control), read-out: Plant response rating, Pigweed
[6] = system: blackgrass (Alopecurus myosuroides); experiment: Test A postemergence; details: Alopecurus myosuroides, post-emergence, 240 h, Postemergence
Summary of the method: as §1

corn (Zea mays) = experiment: Test A postemergence; details: Zea mays, post-emergence, 240 h, Postemergence
Summary of the method: as §1

[7] = system: wheat (Triticum aestivum); experiment: Test A postemergence; details: Triticum aestivum, post-emergence, 240 h, Postemergence
Summary of the method: as §1

[8] = system: ryegrass, Italian (Italian ryegrass, Lolium multiflorum); experiment: Test A postemergence; details: Lolium multiflorum, post-emergence, 240 h, Postemergence
Summary of the method: as §1

[9] = system: giant foxtail (Setaria faberii); experiment: Test A postemergence; details: Setaria faberi, post-emergence, 240 h, Postemergence
Summary of the method: as §1

[10] = system: ragweed (common ragweed, Ambrosia elatior); experiment: Test A postemergence; details: Ambrosia artemisiifolia, post-emergence, 240 h, Postemergence
Summary of the method: as §1

[11] = system: barnyardgrass (Echinochloa crus-galli); experiment: Test A postemergence; details: Echinochloa crus-galli, post-emergence, 240 h, Postemergence
Summary of the method: as §1

[12] = system: Galium (catchweed bedstraw, Galium aparine); experiment: Test A postemergence; details: Galium, post-emergence, 240 h, Postemergence
Summary of the method: as §1

[13] = system: pigweed (Amaranthus retroflexus); experiment: Test A postemergence; details: Amaranthus retroflexus, post-emergence, 240 h, Postemergence
Summary of the method: as §1

**Q.** Which pest or weed control at 500 g/ha (Kochia (Kochia scoparia); 500 g ai/ha, preemergence) does the source give for `CN1C[C@H](c2ccc(C(F)(F)F)cc2)[C@@H](C(=O)Nc2cccc(C#N)c2F)C1=O` [Compound 1381] here?
**A.** Its pest or weed control at 500 g/ha is 80%.

**Q.** What about the pest or weed control at 125 g/ha (Kochia (Kochia scoparia); Preemergence, 125 g ai/ha) of the same compound?
**A.** Its pest or weed control at 125 g/ha is 80%.

**Q.** What about the pest or weed control at 500 g/ha ([1]; 500 g ai/ha, preemergence) of the same compound?
**A.** Its pest or weed control at 500 g/ha is 50%.

**Q.** What about the pest or weed control at 125 g/ha ([1]; Preemergence, 125 g ai/ha) of the same compound?
**A.** Its pest or weed control at 125 g/ha is 30%.

**Q.** What about the pest or weed control at 500 g/ha ([2]; 500 g ai/ha, preemergence) of the same compound?
**A.** Its pest or weed control at 500 g/ha is 100%.

**Q.** And the pest or weed control at 125 g/ha ([2]; Preemergence, 125 g ai/ha)?
**A.** The pest or weed control at 125 g/ha was 100%.

**Q.** What about the pest or weed control at 500 g/ha ([3]; 500 g ai/ha, preemergence) of the same compound?
**A.** Its pest or weed control at 500 g/ha is 80%.

**Q.** What about the pest or weed control at 125 g/ha ([3]; Preemergence, 125 g ai/ha) of the same compound?
**A.** Its pest or weed control at 125 g/ha is 70%.

**Q.** What about the pest or weed control at 500 g/ha ([4]; 500 g ai/ha, preemergence) of the same compound?
**A.** The pest or weed control at 500 g/ha was 100%.

**Q.** And the pest or weed control at 125 g/ha ([4]; Preemergence, 125 g ai/ha)?
**A.** The pest or weed control at 125 g/ha was 90%.

**Q.** And the pest or weed control at 500 g/ha ([5]; 500 g ai/ha, preemergence)?
**A.** The pest or weed control at 500 g/ha was 100%.

**Q.** And the pest or weed control at 125 g/ha ([5]; Preemergence, 125 g ai/ha)?
**A.** The pest or weed control at 125 g/ha was 90%.

**Q.** And the pest or weed control at 125 g/ha ([6]; 125 g ai/ha, visual rating about 10 d after treatment, read-out: Blackgrass plant response rating (0 to 100 scale))?
**A.** Its pest or weed control at 125 g/ha is 40%.

**Q.** What about the pest or weed control at 500 g/ha ([6]; 500 g ai/ha, visual injury, 0 to 100 scale (0 no effect, 100 complete control), approx. 10 d, read-out: Plant response rating, Blackgrass) of the same compound?
**A.** Its pest or weed control at 500 g/ha is 60%.

**Q.** What about the plant injury at 125 g/ha (corn (Zea mays); 125 g ai/ha, visual rating about 10 d after treatment, read-out: Corn plant response rating (0 to 100 scale)) of the same compound?
**A.** The plant injury at 125 g/ha was 40%.

**Q.** What about the Corn plant response rating (crop injury, 0 = no effect, 100 = complete kill) at 500 g/ha (corn (Zea mays); 500 g ai/ha, visual injury, 0 to 100 scale (0 no effect, 100 complete control), approx. 10 d) of the same compound?
**A.** The Corn plant response rating (crop injury, 0 = no effect, 100 = complete kill) at 500 g/ha was 60%.

**Q.** What about the plant injury at 125 g/ha ([7]; 125 g ai/ha, visual rating about 10 d after treatment, read-out: Wheat plant response rating (0 to 100 scale)) of the same compound?
**A.** The plant injury at 125 g/ha was 30%.

**Q.** And the plant injury at 500 g/ha ([7]; 500 g ai/ha, visual injury, 0 to 100 scale (0 no effect, 100 complete control), approx. 10 d, read-out: Plant response rating, Wheat)?
**A.** Its plant injury at 500 g/ha is 50%.

**Q.** And the pest or weed control at 125 g/ha ([8]; 125 g ai/ha, visual rating about 10 d after treatment, read-out: Ryegrass, Italian plant response rating (0 to 100 scale))?
**A.** The pest or weed control at 125 g/ha was 50%.

**Q.** What about the pest or weed control at 500 g/ha ([8]; 500 g ai/ha, visual injury, 0 to 100 scale (0 no effect, 100 complete control), approx. 10 d, read-out: Plant response rating, Ryegrass, Italian) of the same compound?
**A.** The pest or weed control at 500 g/ha was 60%.

**Q.** And the pest or weed control at 125 g/ha ([9]; 125 g ai/ha, visual rating about 10 d after treatment, read-out: Foxtail, Giant plant response rating (0 to 100 scale))?
**A.** The pest or weed control at 125 g/ha was 90%.

**Q.** And the pest or weed control at 500 g/ha ([9]; 500 g ai/ha, visual injury, 0 to 100 scale (0 no effect, 100 complete control), approx. 10 d, read-out: Plant response rating, Foxtail, Giant)?
**A.** The pest or weed control at 500 g/ha was 90%.

**Q.** And the pest or weed control at 125 g/ha ([10]; 125 g ai/ha, visual rating about 10 d after treatment, read-out: Ragweed plant response rating (0 to 100 scale))?
**A.** The pest or weed control at 125 g/ha was 50%.

**Q.** And the pest or weed control at 500 g/ha ([10]; 500 g ai/ha, visual injury, 0 to 100 scale (0 no effect, 100 complete control), approx. 10 d, read-out: Plant response rating, Ragweed)?
**A.** Its pest or weed control at 500 g/ha is 60%.

**Q.** What about the pest or weed control at 125 g/ha ([11]; 125 g ai/ha, visual rating about 10 d after treatment, read-out: Barnyardgrass plant response rating (0 to 100 scale, 0 no effect, 100 complete control)) of the same compound?
**A.** The pest or weed control at 125 g/ha was 80%.

**Q.** What about the pest or weed control at 500 g/ha ([11]; 500 g ai/ha, visual injury, 0 to 100 scale (0 no effect, 100 complete control), approx. 10 d, read-out: Plant response rating, Barnyardgrass) of the same compound?
**A.** The pest or weed control at 500 g/ha was 80%.

**Q.** And the pest or weed control at 125 g/ha ([12]; 125 g ai/ha, visual rating about 10 d after treatment, read-out: Galium plant response rating (0 to 100 scale))?
**A.** Its pest or weed control at 125 g/ha is 50%.

**Q.** What about the pest or weed control at 500 g/ha ([12]; 500 g ai/ha, visual injury, 0 to 100 scale (0 no effect, 100 complete control), approx. 10 d, read-out: Plant response rating, Galium) of the same compound?
**A.** Its pest or weed control at 500 g/ha is 60%.

**Q.** And the pest or weed control at 125 g/ha ([13]; 125 g ai/ha, visual rating about 10 d after treatment, read-out: Pigweed plant response rating (0 to 100 scale))?
**A.** The pest or weed control at 125 g/ha was 70%.

**Q.** And the pest or weed control at 500 g/ha ([13]; 500 g ai/ha, visual injury, 0 to 100 scale (0 no effect, 100 complete control), approx. 10 d, read-out: Plant response rating, Pigweed)?
**A.** Its pest or weed control at 500 g/ha is 70%.
